Source: patent US20230265151A1, “GIP/GLP1 CO-AGONIST COMPOUNDS” (priority 2020, published 2023)
Where two headings read alike, the source gives them in different places. *1 amine or outer side, *2 acyl side, *3 side chain or, on linkers, in order; H or OH if unused. Where a SMILES comes first, the peptide text is derived from it. Side-chain parts run from the residue outwards. [ ]: non-standard residue; d: D form. The star is where a group is joined. Decanoyl(10-(4-HOOC-PhO)) = O=C(O)c1ccc(OCCCCCCCCCC(=O)*)cc1; αMePhe(2-F) = C[C@](N)(Cc1ccccc1F)C(=O)O; γGlu = O=C(O)[C@H](CCC(=O)[*:2])N[*:1]; αMeY = C[C@](N)(Cc1ccc(O)cc1)C(=O)O; αMeL = CC(C)C[C@](C)(N)C(=O)O; Orn = NCCC[C@H](N)C(=O)O; AEEA = NCCOCCOCC(=O)O; Aib = CC(C)(N)C(=O)O

Columns and labels:
Assay type in all cases: cell-based
hGIPR = biological target: T1, hGIPR (Homo sapiens, UniProt P48546); test: Functional cAMP formation (HTRF) in HEK-293 clonal cells expressing hGIPR, 0.1% bovine casein, without or with 1.0% human serum albumin; settings: for EC50: geometric mean
T1 construct: expressed in transfected cells
T1 sequence (P48546 22-466): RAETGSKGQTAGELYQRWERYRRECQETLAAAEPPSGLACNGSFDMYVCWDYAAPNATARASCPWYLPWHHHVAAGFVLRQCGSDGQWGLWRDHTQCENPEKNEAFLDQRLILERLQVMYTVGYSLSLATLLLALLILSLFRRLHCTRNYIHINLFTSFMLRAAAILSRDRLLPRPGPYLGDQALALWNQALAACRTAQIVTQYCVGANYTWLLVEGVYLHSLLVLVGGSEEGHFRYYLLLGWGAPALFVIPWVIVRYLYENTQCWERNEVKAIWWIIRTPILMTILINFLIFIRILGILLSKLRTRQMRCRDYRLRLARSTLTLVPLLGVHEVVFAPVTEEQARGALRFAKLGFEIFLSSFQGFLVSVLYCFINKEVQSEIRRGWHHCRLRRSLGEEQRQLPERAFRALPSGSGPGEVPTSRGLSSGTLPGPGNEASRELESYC
Method in brief: (§1)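 Cells were stimulated with peptide for 30 min at 37° C, then intracellular cAMP was measured by competitive HTRF (665/620 nm ratio) and converted to nM using a cAMP standard curve. Relative EC50 and Emax came from four-parameter logistic fits of percent maximal response against peptide concentration.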

hGCGR = biological target: T2, hGCGR (Homo sapiens, UniProt P47871); test: Functional cAMP formation (HTRF) in HEK-293 clonal cells expressing hGCGR, 0.1% bovine casein, without or with 1.0% human serum albumin
T2 construct: expressed in transfected cells
Method in brief: as §1

hGLP-1R = hGLP-1R (Homo sapiens, UniProt P43220); test: Functional cAMP formation (HTRF) in HEK-293 clonal cells expressing hGLP-1R, 0.1% bovine casein, without or with 1.0% human serum albumin; design: expressed in transfected cells; settings: for EC50: geometric mean
Method in brief: as §1

[1] = HEK293, read-out: hGIPR Emax, % ± SEM, 0.1% bovine casein and 1.0% human serum albumin, 37° C., percent of maximal response to GIP(1-42)NH2
[2] = hGIPR EC50, nM (SEM, n), cAMP, incubated at 37° C., 0.1% bovine casein (no human serum albumin)
[3] = hGCGR EC50, nM (SEM, n), 0.1% bovine casein and 1.0% human serum albumin, 37° C., geometric mean
[4] = hGCGR EC50, nM (SEM, n), cAMP, incubated at 37° C., 0.1% bovine casein (no human serum albumin), geometric mean
[5] = HEK293, read-out: hGLP-1R Emax, % ± SEM, 0.1% bovine casein and 1.0% human serum albumin, 37° C., percent of maximal response to GLP-1(7-36)NH2
[6] = HEK293, read-out: hGLP-1R Emax, % ± SEM, percent of maximal response to GLP-1(7-36)NH2, 37° C., 0.1% bovine casein, arithmetic mean
[7] = hGLP-1R EC50, nM (SEM, n), cAMP, incubated at 37° C., 0.1% bovine casein (no human serum albumin)

Chain of hGLP-1R (P43220 24-463): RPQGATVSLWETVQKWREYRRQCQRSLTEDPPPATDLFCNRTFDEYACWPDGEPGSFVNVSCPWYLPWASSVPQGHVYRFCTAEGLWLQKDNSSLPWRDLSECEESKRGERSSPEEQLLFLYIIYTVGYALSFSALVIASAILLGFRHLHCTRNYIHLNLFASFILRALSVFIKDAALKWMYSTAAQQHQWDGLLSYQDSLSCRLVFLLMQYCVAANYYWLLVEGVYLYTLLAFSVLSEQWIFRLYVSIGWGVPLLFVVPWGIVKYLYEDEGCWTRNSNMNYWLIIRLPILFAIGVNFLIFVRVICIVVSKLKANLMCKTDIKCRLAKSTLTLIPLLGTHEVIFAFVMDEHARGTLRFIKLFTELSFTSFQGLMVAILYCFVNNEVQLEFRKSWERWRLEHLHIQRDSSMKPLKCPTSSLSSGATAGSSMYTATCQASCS
T2 sequence (P47871 26-477): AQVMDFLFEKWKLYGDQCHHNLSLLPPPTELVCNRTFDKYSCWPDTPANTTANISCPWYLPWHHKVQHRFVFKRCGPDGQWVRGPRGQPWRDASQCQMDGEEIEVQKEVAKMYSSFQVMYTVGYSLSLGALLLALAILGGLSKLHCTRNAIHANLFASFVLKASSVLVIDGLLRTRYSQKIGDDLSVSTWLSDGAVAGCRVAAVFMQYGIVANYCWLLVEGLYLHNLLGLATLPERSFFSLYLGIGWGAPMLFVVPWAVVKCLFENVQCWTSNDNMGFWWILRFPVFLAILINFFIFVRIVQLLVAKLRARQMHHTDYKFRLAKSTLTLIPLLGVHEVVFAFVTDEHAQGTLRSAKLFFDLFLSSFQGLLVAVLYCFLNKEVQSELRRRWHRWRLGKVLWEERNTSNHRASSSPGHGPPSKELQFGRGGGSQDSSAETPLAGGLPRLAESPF

## CC[C@H](C)[C@H](NC(=O)[C@H](CC(C)C)NC(=O)[C@H](CCCCNC(=O)COCCOCCNC(=O)COCCOCCNC(=O)CC[C@H](NC(=O)CCCc1ccc(C(C)(C)C)cc1)C(=O)O)NC(=O)[C@H](CCC(=O)O)NC(=O)[C@@H](NC(=O)[C@H](Cc1ccccc1)NC(=O)[C@H](CCC(=O)O)NC(=O)C(C)(C)NC(=O)[C@H](CCC(N)=O)NC(=O)[C@H](C)NC(=O)[C@H](CCCCNC(=O)COCCOCCNC(=O)COCCOCCNC(=O)CC[C@H](NC(=O)CCCc1ccc(C(C)(C)C)cc1)C(=O)O)NC(=O)[C@H](CCCN)NC(=O)[C@H](CC(=O)O)NC(=O)[C@H](CC(C)C)NC(=O)[C@](C)(CC(C)C)NC(=O)[C@@H](NC(=O)[C@H](CO)NC(=O)[C@H](Cc1ccncc1)NC(=O)[C@H](CC(=O)O)NC(=O)[C@H](CO)NC(=O)[C@@H](NC(=O)[C@](C)(Cc1ccccc1F)NC(=O)[C@@H](NC(=O)CNC(=O)[C@H](CCC(=O)O)NC(=O)C(C)(C)NC(=O)[C@@H](N)Cc1ccc(O)cc1)[C@@H](C)O)[C@@H](C)O)[C@@H](C)CC)[C@@H](C)CC)C(=O)N[C@@H](CCC(=O)O)C(=O)NCC(=O)NCC(=O)N1CCC[C@H]1C(=O)N[C@@H](CO)C(=O)N[C@@H](CO)C(=O)NCC(=O)N[C@@H](C)C(=O)N1CCC[C@H]1C(=O)N1CCC[C@H]1C(=O)N1CCC[C@H]1C(=O)N[C@@H](CO)C(N)=O [Example 68]
hGIPR; 0.1% bovine casein and 1.0% human serum albumin, 37° C., read-out: hGIPR EC50, nM (SEM, n)
  EC50: 0.0831 nM
hGIPR; HEK293, 0.1% bovine casein and 1.0% human serum albumin, 37° C., percent of maximal response to GIP(1-42)NH2, read-out: hGIPR Emax, % ± SEM
  Emax: 92.4%
hGIPR; cAMP, incubated at 37° C., 0.1% bovine casein (no human serum albumin), read-out: hGIPR EC50, nM (SEM, n)
  EC50: 0.0105 nM
hGCGR; 0.1% bovine casein and 1.0% human serum albumin, 37° C., geometric mean, read-out: hGCGR EC50, nM (SEM, n)
  EC50: > 9950 nM
hGCGR; cAMP, incubated at 37° C., 0.1% bovine casein (no human serum albumin), geometric mean, read-out: hGCGR EC50, nM (SEM, n)
  EC50: > 9950 nM
hGLP-1R; 0.1% bovine casein and 1.0% human serum albumin, 37° C., read-out: hGLP-1R EC50, nM (SEM, n)
  EC50: 5.79 nM
hGLP-1R; HEK293, percent of maximal response to GLP-1(7-36)NH2, 37° C., 0.1% bovine casein, arithmetic mean, read-out: hGLP-1R Emax, % ± SEM
  Emax: 95.9%

## CC[C@H](C)[C@H](NC(=O)[C@H](CC(C)C)NC(=O)[C@](C)(Cc1ccc(O)cc1)NC(=O)[C@@H](CCC(=O)O)NC(=O)[C@@H](NC(=O)[C@H](Cc1ccccc1)NC(=O)[C@H](CCCCNC(=O)COCCOCCNC(=O)CC[C@H](NC(=O)CCCCCCCCCOc1ccc(C(=O)O)cc1)C(=O)O)NC(=O)C(C)(C)NC(=O)[C@H](CCC(N)=O)NC(=O)[C@H](C)NC(=O)[C@H](CCCCNC(=O)COCCOCCNC(=O)CC[C@H](NC(=O)CCCCCCCCCOc1ccc(C(=O)O)cc1)C(=O)O)NC(=O)[C@H](CCCN)NC(=O)[C@H](CC(=O)O)NC(=O)[C@H](CC(C)C)NC(=O)[C@](C)(CC(C)C)NC(=O)[C@@H](NC(=O)C(C)(C)NC(=O)[C@H](Cc1ccc(O)cc1)NC(=O)[C@H](CC(=O)O)NC(=O)[C@H](CO)NC(=O)[C@@H](NC(=O)[C@](C)(Cc1ccccc1F)NC(=O)[C@@H](NC(=O)CNC(=O)[C@H](CCC(=O)O)NC(=O)C(C)(C)NC(=O)[C@@H](N)Cc1ccc(O)cc1)[C@@H](C)O)[C@@H](C)O)[C@@H](C)CC)[C@@H](C)CC)C(=O)N[C@@H](CCC(=O)O)C(=O)NCC(=O)NCC(=O)N1CCC[C@H]1C(=O)N[C@@H](CO)C(=O)N[C@@H](CO)C(=O)NCC(=O)N[C@@H](C)C(=O)N1CCC[C@H]1C(=O)N1CCC[C@H]1C(=O)N1CCC[C@H]1C(=O)N[C@@H](CO)C(N)=O [Example 372]
hGIPR; HEK293, read-out: hGIPR Emax, % ± SEM, cAMP, 37° C., 0.1% bovine casein and 1.0% human serum albumin, percent of maximal response to GIP(1-42)NH2
  Emax: 90.6%
hGIPR; HEK293, read-out: hGIPR Emax, % ± SEM, cAMP, 37° C., 0.1% bovine casein, percent of maximal response to GIP(1-42)NH2, arithmetic mean
  Emax: 97.3%
hGIPR; hGIPR EC50, nM (SEM, n), cAMP, 37° C., 0.1% bovine casein (no human serum albumin)
  EC50: 0.0112 nM
hGCGR; hGCGR EC50, nM (SEM, n), cAMP, 37° C., 0.1% bovine casein (no human serum albumin), geometric mean
  EC50: > 9950 nM
hGCGR; hGCGR EC50, nM (SEM, n), cAMP, 37° C., 0.1% bovine casein and 1.0% human serum albumin, geometric mean (SEM, n)
  EC50: > 9950 nM
hGLP-1R; hGLP-1R EC50, nM (SEM, n), cAMP, 37° C., 0.1% bovine casein (no human serum albumin)
  EC50: 0.291 nM

## CC[C@H](C)[C@H](NC(=O)[C@H](CCCN)NC(=O)[C@H](CC(=O)O)NC(=O)[C@H](CC(C)C)NC(=O)[C@](C)(CC(C)C)NC(=O)[C@@H](NC(=O)C(C)(C)NC(=O)[C@H](Cc1ccc(O)cc1)NC(=O)[C@H](CC(=O)O)NC(=O)[C@H](CO)NC(=O)[C@@H](NC(=O)[C@](C)(Cc1ccccc1F)NC(=O)[C@@H](NC(=O)CNC(=O)[C@H](CCC(=O)O)NC(=O)C(C)(C)NC(=O)[C@@H](N)Cc1ccc(O)cc1)[C@@H](C)O)[C@@H](C)O)[C@@H](C)CC)C(=O)N[C@@H](C)C(=O)N[C@@H](CCC(N)=O)C(=O)NC(C)(C)C(=O)N[C@@H](CCCCNC(=O)COCCOCCNC(=O)COCCOCCNC(=O)CC[C@H](NC(=O)CCCCCCCCCOc1ccc(C(=O)O)cc1)C(=O)O)C(=O)N[C@@H](Cc1ccccc1)C(=O)N[C@H](C(=O)N[C@H](CCC(=O)O)C(=O)N[C@@](C)(Cc1ccc(O)cc1)C(=O)N[C@@H](CC(C)C)C(=O)N[C@H](C(=O)N[C@@H](CCC(=O)O)C(=O)NCC(=O)NCC(=O)N1CCC[C@H]1C(=O)N[C@@H](CO)C(=O)N[C@@H](CO)C(=O)NCC(=O)N[C@@H](C)C(=O)N1CCC[C@H]1C(=O)N1CCC[C@H]1C(=O)N1CCC[C@H]1C(=O)N[C@@H](CO)C(=O)N[C@@H](CCCCNC(=O)COCCOCCNC(=O)COCCOCCNC(=O)CC[C@H](NC(=O)CCCCCCCCCOc1ccc(C(=O)O)cc1)C(=O)O)C(N)=O)[C@@H](C)CC)[C@@H](C)CC [Example 241] (H-Y[Aib]EGT[αMePhe(2-F)]TSDY[Aib]I[αMeL]LD[Orn]IAQ[Aib]K([AEEA-AEEA-γGlu-Decanoyl(10-(4-HOOC-PhO))])FI[dE][αMeY]LIEGGPSSGAPPPSK([AEEA-AEEA-γGlu-Decanoyl(10-(4-HOOC-PhO))])-NH2; N-terminus assumed)
hGIPR; [1]
  Emax: 84.9%
hGIPR; HEK293, read-out: hGIPR Emax, % ± SEM, percent of maximal response to GIP(1-42)NH2, 37° C., 0.1% bovine casein, arithmetic mean
  Emax: 105%
hGIPR; [2]
  EC50: 0.0213 nM
hGCGR; [3]
  EC50: > 9950 nM
hGCGR; [4]
  EC50: > 9950 nM
hGLP-1R; [5]
  Emax: 105%
hGLP-1R; [6]
  Emax: 91%
hGLP-1R; [7]
  EC50: 0.362 nM

## CC[C@H](C)[C@H](NC(=O)[C@H](CC(C)C)NC(=O)[C@](C)(Cc1ccc(O)cc1)NC(=O)[C@@H](CCC(=O)O)NC(=O)[C@@H](NC(=O)[C@H](Cc1ccccc1)NC(=O)[C@H](CCCCNC(=O)COCCOCCNC(=O)COCCOCCNC(=O)CC[C@H](NC(=O)CCCCCCCCCOc1ccc(C(=O)O)cc1)C(=O)O)NC(=O)C(C)(C)NC(=O)[C@H](CCC(N)=O)NC(=O)[C@H](C)NC(=O)[C@H](CCCCNC(=O)COCCOCCNC(=O)COCCOCCNC(=O)CC[C@H](NC(=O)CCCCCCCCCOc1ccc(C(=O)O)cc1)C(=O)O)NC(=O)[C@H](CCCN)NC(=O)[C@H](CC(=O)O)NC(=O)[C@H](CC(C)C)NC(=O)[C@](C)(CC(C)C)NC(=O)[C@@H](NC(=O)C(C)(C)NC(=O)[C@H](Cc1ccncc1)NC(=O)[C@H](CC(=O)O)NC(=O)[C@H](CO)NC(=O)[C@@H](NC(=O)[C@](C)(Cc1ccccc1F)NC(=O)[C@@H](NC(=O)CNC(=O)[C@H](CCC(=O)O)NC(=O)C(C)(C)NC(=O)[C@@H](N)Cc1ccc(O)cc1)[C@@H](C)O)[C@@H](C)O)[C@@H](C)CC)[C@@H](C)CC)C(=O)N[C@@H](CCC(=O)O)C(=O)NCC(=O)NCC(=O)N1CCC[C@H]1C(=O)N[C@@H](CO)C(=O)N[C@@H](CO)C(=O)NCC(=O)N[C@@H](C)C(=O)N1CCC[C@H]1C(=O)N1CCC[C@H]1C(=O)N1CCC[C@H]1C(=O)N[C@@H](CO)C(N)=O [Example 243]
hGIPR; [1]
  Emax: 90.5%
hGIPR; hGIPR EC50, nM (SEM, n), 0.1% bovine casein and 1.0% human serum albumin, 37° C.
  EC50: 0.728 nM
hGIPR; [2]
  EC50: 0.0154 nM
hGCGR; [3]
  EC50: > 9950 nM
hGCGR; [4]
  EC50: > 9950 nM
hGLP-1R; [5]
  Emax: 114%
hGLP-1R; [6]
  Emax: 93.2%
hGLP-1R; [7]
  EC50: 0.86 nM
